From patent EP0139005A1, “ANTITUMOR COMPOSITION, METHOD FOR TREATING TUMOR, AND USE OF THE COMPOSITION FOR TREATING TUMOR” (Yoshitomi Pharmaceutical Industries, Ltd., priority 1982, dated 1984)

Legend:
L1210 leukemia = L1210 leukemia implanted intraperitoneally, i.p. treatment, survival (Experimental Example 3); format: in vivo, female CDF1 mice; conditions: for Average Survival Time / Life-Prolongation Ratio (%): once daily for seven days
Description: The life-prolongation ratio was calculated by the following scheme (the same scheme is applied to the subsequent experimental examples).
Life-prolongation Ratio [formula] T : Average survival days of the treated group
C : Average survival days of the control group
Animals survived over 30 days or longer were estimated as 30-day survivors, and the cases where T/C equals to or greater than 125% were regarded as effective.
A plurality of groups each consisting of five heads of female CDF1 mice (8 weeks old) were respectively implanted intraperitoneally with 10 cells of L1210 leukemia. After the next day of the implantation, Y-6430, ESCC and ESCC ethyl ester (hereinafter referred to ESCC-Et) in physiological saline were respectively administered once daily for seven days intraperitoneally, and the average survival days and life-prolongation ratios in each group were calculated.
All the test animals died of tumor within 30 days.

AH272 hepatoma = assay: AH272 hepatoma, survival (Experimental Example 8); format: in vivo, male Donryu rats; conditions: once daily from third to sixth day, control 7.9 days
Description: A plurality of groups each consisting of six male Donryu rats (7-8 weeks old) were implanted with 2 x 10^6 cells of AH272 hepatoma. After the implantation, Y-6430 dissolved in physiological saline was administered intraperitoneally once daily within the period from the third to sixth day, and the average survival days were calculated, the result being shown in Table 9.
All the test animals were dead within 30 days.

AH44 hepatoma = AH44 hepatoma implanted intraperitoneally, single dose, survival (Experimental Example 5); format: in vivo, male Donryu rats; conditions: once, three days after implantation
From the text: A plurality of groups each consisting of six male Donryu rats (7-8 weeks old) were respectively implanted intraperitoneally with 10^6 cells of AH44 hepatoma. Three days after the implantation, each test animal was once administered orally or intraperitoneally with Y-6430.

With `CCOC(=O)[C@@H](N)CSC(=O)NC.Cl` [Y-6430, S-methylcarbamoyl-L-cysteine ethyl ester hydrochloride] the “Average Survival Time” value (L1210 leukemia; 50 mg/kg/day i.p.) was 8.4 days, the “Life-Prolongation Ratio (%)” value (L1210 leukemia; 50 mg/kg/day i.p.) was 105% and the “Average Survival Time” value (L1210 leukemia; 100 mg/kg/day i.p.) was 9.4 days. The “Life-Prolongation Ratio (%)” value (L1210 leukemia; 100 mg/kg/day i.p.) was 118%, the “Average Survival Time” value (L1210 leukemia; 250 mg/kg/day i.p.) was 9.8 days and the “Life-Prolongation Ratio (%)” value (L1210 leukemia; 250 mg/kg/day i.p.) was 123%. The “Average Survival Time” value (L1210 leukemia; 500 mg/kg/day i.p.) was 12.4 days, the “Life-Prolongation Ratio (%)” value (L1210 leukemia; 500 mg/kg/day i.p.) was 155% and the “effectiveness against L1210 leukemia” value (L1210 leukemia; group administered with 500 mg/kg i.p.) was “effective”. For the same compound, the “Average Survival Time” value (AH272 hepatoma; 100 mg/kg/day i.p.) was 10.5 days, the “Average Survival Time” value (AH272 hepatoma; 250 mg/kg/day i.p.) was 15.0 days and the “30-day Survivors” value (AH44 hepatoma; 500 mg/kg p.o.) was 0/6. For the same compound, the “Average Survival Time” value (AH44 hepatoma; 500 mg/kg p.o.) was 11.2 days, the “30-day Survivors” value (AH44 hepatoma; 1,000 mg/kg i.p.) was 1/6 and the “Average Survival Time” value (AH44 hepatoma; 1,000 mg/kg i.p.) was 14.7 days. The “30-day Survivors” value (AH44 hepatoma; 1,000 mg/kg p.o.) was 0/6 and the “Average Survival Time” value (AH44 hepatoma; 1,000 mg/kg p.o.) was 10.8 days.
